Experimental data published in US12383519B2, “Application of CaMK4 in preparation of medicine for preventing and treating psoriasis” (priority 2021, dated 2025).

B1: IL-10: exogenous interleukin-10, central anti-inflammatory mediator, injected through tail vein (protein, UniProt P22301 19-178, looked up)
Interleukin-10: SPGQGTQSENSCTHFPGNLPNMLRDLRDAFSRVKTFFQMKDQLDNLLLKESLLEDFKGYLGCQALSEMIQFYLEEVMPQAENQDPDIKAHVNSLGENLKTLRLRLRRCHRFLPCENKSKAVEQVKNAFNKLQEKGIYKAMSEFDIFINYIEAYMTMKIRN

How the values were obtained:
[1] = system: IMQ-induced psoriasiform inflammation in mice; assay: IMQ-induced mouse model of psoriasis, treatment with CaMK4 inhibitor KN-93; format: in vivo; conditions: KN-93 0.24 mg per mouse, tail vein, vs PBS control
Procedure: (§1) An internationally used mouse model of psoriasis was used: 6-8-week-old C57BL/6 mice were given 5% IMQ applied to the shaved back skin of the mice at 62.5 mg per day for 5 days. The 6-8-week-old C57BL/6 mice were used as controls.
(§2) 1) The back skin thickness, scaling and erythema development of mice were observed on days 0 -5 after applying IMQ to the shaved back skin of mice. According to the clinical psoriasis area and severity index, the severity of back skin was evaluated by thickness, scaling and erythema. The back skin thickness was measured with vernier calipers. Scaling and erythema were scored on a scale ranging from 0-4: 0 represents none; 1 represents mild; 2 represents moderate; 3 represents significant; and 4 represents very significant.
2) Skin sections were prepared for staining with H&E, and the skin sections were stained by using the conventional universal H&E staining method.
(§3) 3) Statistical analysis of epidermal thickness. Specifically, H&E-stained sections were photographed in a double-blind manner and then measured for epidermal thickness.
5) The mRNA levels of IMQ induced mouse skin pathogenic factors were detected by quantitative PCR. The method was the same as that in the example 1.
62.5 mg of IMQ were applied to the shaved back skin of wild-type mice for 5 days. KN-93 (0.24 mg per mouse) or PBS was injected into mice through tail vein one hour before IMQ application on day 0 and day 2. Samples were collected on day 5 for subsequent experiments.

[2] = system: IMQ-induced psoriasiform inflammation in mice; assay: IMQ-induced mouse model of psoriasis, exogenous IL-10 injection; format: in vivo; conditions: IL-10 1 μg per mouse, tail vein, vs PBS control
Procedure: as §1, §2, §3
62.5 mg of IMQ were applied to the shaved back skin of wild-type (WT) mice for 5 days. IL-10 (1 μg per mouse) or PBS was injected into mice through tail vein on 1 h before IMQ application on day 0 and day 2. Samples were collected on day 5 for subsequent experiments.
1) The back skin thickness, scaling and erythema development of mice were observed on days 0 -5 after applying IMQ to the shaved back skin of mice, and scored. The method is the same as that in the example 2;
2) Statistical analysis of epidermal thickness was performed; the method is the same as that in the example 2.
3) The mRNA levels of IMQ induced mouse skin pathogenic factors were detected by quantitative PCR. The method was the same as that in the example 1.

Molecule	scaling ([1]; day 0 and day 2)	skin thickness ([1]; day 0 and day 2)	psoriasiform phenotype ([1]; day 0 and day 2, IMQ 5 days)	epidermal thickness ([1]; H&E sections, day 5)	mRNA level of IL-10 in skin ([1]; day 5 skin)	proinflammatory cytokines (skin mRNA, quantitative PCR) ([1]; day 5 skin)	erythema ([2]; day 0 and day 2)	psoriasiform phenotype ([2]; day 0 and day 2)	scaling ([2]; day 0 and day 2)	skin thickness ([2]; day 0 and day 2)	epidermal thickness ([2]; day 5)	proinflammatory cytokines (skin mRNA, quantitative PCR) ([2]; day 5)
COc1ccc(S(=O)(=O)N(CCO)c2ccccc2CN(C)C/C=C/c2ccc(Cl)cc2)cc1 [KN-93]	reduce	reduce	less than that of control mice	reduce	higher than that of control mice	reduce						
B1							reduced	attenuated	reduced	reduced	reduced	reduced
